As usually defined, the IC50 is the concentration that inhibits the measured activity by half. A high value points to a need for much substance.

Assay [1] has as its target T1, human A2B adenosine receptor (Homo sapiens, UniProt P29275).
T1 construct: purchased Perkin Elmer ES-013-C; host or cells: HEK293 cells
T1 sequence (P29275 1-332): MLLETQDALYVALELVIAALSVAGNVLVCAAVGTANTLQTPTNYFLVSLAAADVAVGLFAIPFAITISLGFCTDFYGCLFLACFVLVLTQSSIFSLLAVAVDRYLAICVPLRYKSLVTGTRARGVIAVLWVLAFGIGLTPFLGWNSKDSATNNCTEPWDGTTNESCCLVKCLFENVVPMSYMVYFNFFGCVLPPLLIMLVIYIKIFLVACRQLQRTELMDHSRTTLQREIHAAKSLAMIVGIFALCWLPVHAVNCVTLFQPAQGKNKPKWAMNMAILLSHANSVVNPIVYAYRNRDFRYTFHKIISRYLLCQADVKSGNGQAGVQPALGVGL
Briefly: A2B binding affinity, radioligand filtration binding assay. As to conditions: membranes of HEK293 cells expressing human A2B. The source says:
(§1) Method (A) describes the procedure used to measure A2A binding affinity using radioligand binding. Method (B) describes the procedure used to measure A2A binding affinity using SPA technology. The method used to measure A2B binding affinity is also described below. The method used to determine the A2A IC50 value reported for each compound in the table is indicated next to the reported value. The A2B IC50 value measured using the A2B binding affinity assay is shown in the table next to the compound under the corresponding A2A value.
Measurement of A2B Binding Affinity
The reported affinity of the compounds of the invention for the human A2B adenosine receptor was determined experimentally using a radioligand filtration binding assay. This assay measures the amount of binding of a tritiated proprietary A2B receptor antagonist, in the presence and absence of a compound of the invention, to membranes made from HEK293 cells recombinantly expressing the human A2B adenosine receptor (Perkin Elmer, Cat. No. ES-013-C). […] 148 µL (135 µg/mL) membranes and 2 µL test compounds were transferred to individual wells of a 96-well polypropylene assay plate and incubated for 15 to 30 min at room temperature with agitation. Tritiated radioligand was diluted to a concentration of 14 nM in assay buffer (phosphate buffered saline without Magnesium and Calcium, pH 7.4; GE Healthcare Life Sciences, Cat. No. SH30256.01) and then 50 µL of the solution were transferred to each well of the assay plate. To define total and non-specific binding, wells containing 1% DMSO and 20 µM N-ethylcarboxamidoadenosine (Tocris Bioscience, Cat. No. 1691) respectively, were also included. The wells of the assay plate were incubated at room temperature for 60 min with agitation, then filtered using a FilterMate Harvester® (Perkin Elmer) or similar equipment through a UniFilter-96® PEI coated plate (Perkin Elmer Cat. No. 6005274 or 6005277). Filtering was achieved by aspirating the contents of the assay plate for 5 sec, then washing and aspirating the contents three times with ice-cooled wash buffer (assay buffer supplemented with 0.0025% Brij58) and allowing the vacuum manifold to dry the plate for 30 sec. The filter plate was incubated for at least 1 h at 55° C. and allowed to dry. The bottom of the filter plate was then sealed with backing tape. 40 µL Ultima Gold™ (Perkin Elmer, Cat. No. 6013329) was added to each well of the filter plate and the top of the plate was sealed with TopSeal-A PLUS® clear plate seal (Perkin Elmer, Cat. No. 6050185). The plates were then incubated for at least 20 min, and then the amount of radioactivity remaining in each well was determined using a TopCount® (Perkin Elmer) scintillation counter. After normalization to total and non-specific binding, the percent effect at each compound concentration was calculated. The plot of percent effect versus the log of compound concentration was analyzed electronically using a 4-parameter logistic fit based on the Levenberg-Marquardt algorithm to generate IC50 values.

Assay [2] addresses T2, human A2A adenosine receptor (Homo sapiens, UniProt P29274).
T2 construct: expressed in transfected cells; host or cells: HEK293 or CHO cells
Briefly: A2A binding affinity, Method (A): radioligand filtration binding with [3H]SCH58261. As to conditions: membranes of HEK293 or CHO cells expressing the human receptor.
From the text: as §1
The A2A receptor affinity binding assay measured the amount of binding of a tritiated ligand with high affinity for the A2A adenosine receptor to membranes made from HEK293 or CHO cells recombinantly expressing the human A2A adenosine receptor, in the presence of varying concentrations of a compound of the invention. The data were generated using either filtration binding or a homogenous scintillation proximity assay (SPA).
Method (A): Measurement of A2A Binding Affinity Using Radioligand Binding
148 µL (5 µg/mL) membranes (Perkin Elmer, Cat. No. RBHA2aM400UA) and 2 µL compounds of the invention to be tested (test compound) were transferred to individual wells of a 96-well polypropylene assay plate and incubated for 15 to 30 min at room temperature. [^3H] SCH58261 ((7-(2-phenylethyl)-5-amino-2-(2-furyl)-pyrazolo-[4,3-e]-1,2,4-triazolo[1,5-c]pyrimidine)) was diluted in assay buffer (50 mM Tris pH 7.4, 10 mM MgCl2, 0.005% Tween20) to a concentration of 4 nM and 50 µL transferred to each well of the assay plate. To define total and non-specific binding, wells containing 1% DMSO and 1 µM ZM241385 (Tocris Bioscience, Cat. No. 1036) respectively, were also included. The assay plate was incubated at room temperature for 60 min with agitation. Using a FilterMate Harvester® (Perkin Elmer), the contents of the assay plate were filtered through a UniFilter-96® PEI coated plate (Perkin Elmer Cat. No. 6005274 or 6005277). Filtering was achieved by aspirating the contents of the assay plate for 5 sec, then washing and aspirating the contents three times with ice-cooled wash buffer (50 mM Tris-HCl pH 7.4, 150 mM NaCl) and allowing the vacuum manifold to dry the plate for 30 sec. The filter plate was incubated for at least 1 h at 55° C. and allowed to dry. The bottom of the filter plate was sealed with backing tape. 40 µL Ultima Gold™ (Perkin Elmer, Cat. No. 6013329) was added to each well of the filter plate and the top of the plate was sealed with TopSeal-A PLUS® clear plate seal (Perkin Elmer, Cat. No. 6050185). The plate was incubated for at least 20 min, and then the amount of radioactivity remaining in each well was determined using a TopCount® (Perkin Elmer) scintillation counter. After normalization to total and non-specific binding, the percent effect at each compound concentration was calculated. The plot of percent effect versus the log of compound concentration was analyzed electronically using a 4-parameter logistic fit based on the Levenberg-Marquardt algorithm to generate IC50 values.

T2 sequence (P29274 whole entry): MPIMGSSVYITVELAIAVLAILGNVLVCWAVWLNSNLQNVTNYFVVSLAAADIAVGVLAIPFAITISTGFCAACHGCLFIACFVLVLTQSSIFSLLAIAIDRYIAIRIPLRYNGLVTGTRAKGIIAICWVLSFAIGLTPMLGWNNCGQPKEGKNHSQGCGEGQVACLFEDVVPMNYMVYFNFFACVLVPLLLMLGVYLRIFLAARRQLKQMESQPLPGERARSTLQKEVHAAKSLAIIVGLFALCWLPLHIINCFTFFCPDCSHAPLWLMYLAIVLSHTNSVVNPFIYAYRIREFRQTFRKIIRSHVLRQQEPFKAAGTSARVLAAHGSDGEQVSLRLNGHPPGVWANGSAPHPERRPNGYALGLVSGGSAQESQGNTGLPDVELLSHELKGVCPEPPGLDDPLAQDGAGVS

Regarding `COc1cc(F)cc2c1nc(N)n1nc(CNCc3ccc(C(O)C(F)(F)F)cc3)nc21` (single isomer, unassigned) [Example 11.7A, (S or R)-1-(4-((((5-amino-9-fluoro-7-methoxy-[1,2,4]triazolo[1,5-c]quinazolin-2-yl)methyl)amino)methyl)phenyl)-2,2,2-trifluoroethan-1-ol], the IC50 in assay [1] (value given with mark (A)) stood at 21.2 nM; in assay [2], 0.5 nM. Take `COc1cccc2c1nc(N)n1nc(CNS(=O)(=O)C3CC3)nc21` [Example 12.2, N-((5-amino-7-methoxy-[1,2,4]triazolo[1,5-c]quinazolin-2-yl)methyl)cyclopropanesulfonamide]: the IC50 stood at 116 nM in assay [1] (value given with mark (A)) and 0.6 nM in assay [2]. As to `COc1cccc2c1nc(N)n1nc(CCNC34CC(C(C)(C)O)(C3)C4)nc21` [Example 22.2, 2-(3-((2-(5-amino-7-methoxy-[1,2,4]triazolo[1,5-c]quinazolin-2-yl)ethyl)amino)bicyclo[1.1.1]pentan-1-yl)propan-2-ol], in assay [2], the IC50 is 12.3 nM. `COc1cc(F)cc2c1nc(N)n1nc(CNCc3ccc(C(O)(C(F)F)C(F)F)cc3)nc21` [Example 11.6, 2-(4-((((5-amino-9-fluoro-7-methoxy-[1,2,4]triazolo[1,5-c]quinazolin-2-yl)methyl)amino)methyl)phenyl)-1,1,3,3-tetrafluoropropan-2-ol]: the IC50 in assay [1] (value given with mark (A)) came out at 3.7 nM; in assay [2], 0.3 nM. Regarding `COc1cc(F)cc2c1nc(N)n1nc(CNCc3ccc(C(C)(C)O)cc3)nc21` [Example 11.4, 2-(4-((((5-amino-9-fluoro-7-methoxy-[1,2,4]triazolo[1,5-c]quinazolin-2-yl)methyl)amino)methyl)phenyl)propan-2-ol], the IC50 worked out at 2.9 nM in assay [1] (value printed with mark (B)) and 0.1 nM in assay [2]. As for `COc1cc(F)cc2c1nc(N)n1nc(CNC(c3ccc(C(C)(C)O)cc3)C(F)(F)F)nc21` (single isomer, unassigned) [Example 25.3A, (S or R)-2-(4-(1-(((5-amino-9-fluoro-7-methoxy-[1,2,4]triazolo[1,5-c]quinazolin-2-yl)methyl)amino)-2,2,2-trifluoroethyl)phenyl)propan-2-ol], the IC50 in assay [2] was 19.3 nM. In the case of `COc1cccc2c1nc(N)n1nc(CN3CCO[C@@H](Cc4ccccc4)C3)nc21` [Example 8.1, (S)-2-((2-benzylmorpholino)methyl)-7-methoxy-[1,2,4]triazolo[1,5-c]quinazolin-5-amine], the IC50 in assay [2] worked out at 6 nM. In the case of `COc1cccc2c1nc(N)n1nc(CNC3CCc4c(nnn4C4CC(F)(F)C4)C3)nc21` (single isomer, unassigned) [Example 11.2B, (R or S)-2-(((1-(3,3-difluorocyclobutyl)-4,5,6,7-tetrahydro-1H-benzo[d][1,2,3]triazol-5-yl)amino)methyl)-7-methoxy-[1,2,4]triazolo[1,5-c]quinazolin-5-amine], the IC50 in assay [2] turned out to be 3.4 nM. The compound `COc1cccc2c1nc(N)n1nc(CN3CC(c4ccncc4)C3)nc21` [Example 11.14, 7-methoxy-2-((3-(pyridin-4-yl)azetidin-1-yl)methyl)-[1,2,4]triazolo[1,5-c]quinazolin-5-amine] gave an IC50 in assay [2] of 9.1 nM.

`COc1cccc2c1nc(N)n1nc(CCNc3cnn(C)c3)nc21` [Example 23.2, 7-methoxy-2-(2-((1-methyl-1H-pyrazol-4-yl)amino)ethyl)-[1,2,4]triazolo[1,5-c]quinazolin-5-amine] showed a half-maximal inhibitory concentration (IC50) in assay [2] of 4.2 nM. In assay [2], `COc1cc(F)cc2c1nc(N)n1nc(CCN3Cc4cnc(C(C)C)n4CC3=O)nc21` [Example 26.3, 7-(2-(5-amino-9-fluoro-7-methoxy-[1,2,4]triazolo[1,5-c]quinazolin-2-yl)ethyl)-3-isopropyl-7,8-dihydroimidazo[1,5-a]pyrazin-6(5H)-one] yielded an IC50 of 6.4 nM. `COc1cc2nc(N)n3nc(CCNc4cnn(CC(C)(C)O)c4)nc3c2cc1F` [Example 24.2, 1-(4-((2-(5-amino-9-fluoro-8-methoxy-[1,2,4]triazolo[1,5-c]quinazolin-2-yl)ethyl)amino)-1H-pyrazol-1-yl)-2-methylpropan-2-ol] showed an IC50 in assay [2] of 26.5 nM.

`COc1cc(F)cc2c1nc(N)n1nc(CNC(=O)c3ccc(C(C)(C)O)cc3Cl)nc21` [Entry 3.5] had an IC50 in assay [2] of 2.5 nM. `COc1cccc2c1nc(N)n1nc(CN3CC(n4cccn4)C3)nc21` [Example 11.12, 2-((3-(1H-pyrazol-1-yl)azetidin-1-yl)methyl)-7-methoxy-[1,2,4]triazolo[1,5-c]quinazolin-5-amine] came in with an IC50 in assay [2] of 3.7 nM. With `COc1cccc2c1nc(N)n1nc(CCN(C)c3cnn(C)c3)nc21` [Example 24.4, 7-methoxy-2-(2-(methyl(1-methyl-1H-pyrazol-4-yl)amino)ethyl)-[1,2,4]triazolo[1,5-c]quinazolin-5-amine], the IC50 in assay [2] was determined as 0.9 nM. In assay [2], `COc1cccc2c1nc(N)n1nc(CNC(=O)c3ccc(C(C)(O)C(F)(F)F)cc3)nc21` (single isomer, unassigned) [Example 2.7B, (R or S)-N-((5-amino-7-methoxy-[1,2,4]triazolo[1,5-c]quinazolin-2-yl)methyl)-4-(1,1,1-trifluoro-2-hydroxypropan-2-yl)benzamide] came in with an IC50 of 0.5 nM. The same measure, in the same setting: for `COc1cc(F)cc2c1nc(N)n1nc(CNC(c3ccc(C(C)(C)O)cc3)C(F)(F)F)nc21` (single isomer, unassigned) [Example 25.3B, (R or S)-2-(4-(1-(((5-amino-9-fluoro-7-methoxy-[1,2,4]triazolo[1,5-c]quinazolin-2-yl)methyl)amino)-2,2,2-trifluoroethyl)phenyl)propan-2-ol] the value was 29.2 nM; for `COc1cccc2c1nc(N)n1nc(CNC(=O)c3ccc(C(C)(C)O)cn3)nc21` [Example 4.2, N-((5-amino-7-methoxy-[1,2,4]triazolo[1,5-c]quinazolin-2-yl)methyl)-5-(2-hydroxypropan-2-yl)picolinamide], 1.4 nM.

Source of the values: patent publication US20230322785A1, “ADENOSINE A2A AND A2B RECEPTOR DUAL ANTAGONISTS FOR IMMUNO-ONCOLOGY” (Merck Sharp & Dohme LLC, priority 2020, published 2023).
